Laboratory results from patent publication US20160271263A1 (Novo Nordisk A/S, priority 2010, published 2016).
Numbered stars: 1 amine (or outer) side, 2 acyl side, 3 side chain; on linkers, the order of the positions; unused ones are H or OH. Square brackets hold non-standard residues; d marks the D form. Side chains are listed from the residue outwards. Peptide text beside a SMILES is read from it. * marks the point of attachment. C18 diacid = O=C(O)CCCCCCCCCCCCCCCCC(=O)*; γGlu = O=C(O)[C@H](CCC(=O)[*:2])N[*:1]; AEEA = NCCOCCOCC(=O)O; Aib = CC(C)(N)C(=O)O

Biological target: glucagon receptor (Homo sapiens, UniProt P47871)
Test: cell-based

Sequence of glucagon receptor (P47871 26-477): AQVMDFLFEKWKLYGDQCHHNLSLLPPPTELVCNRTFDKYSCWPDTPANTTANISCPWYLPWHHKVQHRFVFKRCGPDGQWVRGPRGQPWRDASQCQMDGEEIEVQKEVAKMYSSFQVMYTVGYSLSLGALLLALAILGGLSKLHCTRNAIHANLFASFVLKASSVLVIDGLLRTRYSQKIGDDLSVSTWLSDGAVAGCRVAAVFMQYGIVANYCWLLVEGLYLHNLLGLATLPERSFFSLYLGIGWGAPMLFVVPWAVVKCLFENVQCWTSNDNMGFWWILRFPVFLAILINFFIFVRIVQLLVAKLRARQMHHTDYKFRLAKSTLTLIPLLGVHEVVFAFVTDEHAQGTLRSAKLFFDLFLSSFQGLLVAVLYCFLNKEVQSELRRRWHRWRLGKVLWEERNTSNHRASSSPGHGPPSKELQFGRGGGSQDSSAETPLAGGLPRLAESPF

Compound | EC50 [pM]
CC(C)C[C@H](NC(=O)[C@H](Cc1ccc(O)cc1)NC(=O)[C@H](CCCCN)NC(=O)[C@H](CO)NC(=O)[C@H](Cc1ccc(O)cc1)NC(=O)[C@H](CC(=O)O)NC(=O)[C@H](CO)NC(=O)[C@@H](NC(=O)[C@H](Cc1ccccc1)NC(=O)[C@@H](NC(=O)CNC(=O)[C@H](CCC(N)=O)NC(=O)[C@H](CO)NC(=O)[C@@H](N)Cc1c[nH]cn1)[C@@H](C)O)[C@@H](C)O)C(=O)N[C@@H](CC(=O)O)C(=O)N[C@@H](CCCCNC(=O)COCCOCCNC(=O)COCCOCCNC(=O)CC[C@H](NC(=O)CCCCCCCCCCCCCCCCC(=O)O)C(=O)O)C(=O)N[C@@H](CCCNC(=N)N)C(=O)N[C@@H](CCCNC(=N)N)C(=O)N[C@@H](C)C(=O)N[C@@H](CCC(N)=O)C(=O)N[C@@H](CC(=O)O)C(=O)N[C@@H](Cc1ccccc1)C(=O)N[C@H](C(=O)N[C@@H](CCC(N)=O)C(=O)N[C@@H](Cc1c[nH]c2ccccc12)C(=O)N[C@@H](CC(C)C)C(=O)N[C@@H](CC(C)C)C(=O)N[C@@H](CC(N)=O)C(=O)N[C@H](C(=O)O)[C@@H](C)O)C(C)C [Example 17] (H-HSQGTFTSDYSKYLDK([AEEA-AEEA-γGlu-C18 diacid])RRAQDFVQWLLNT-OH; N-terminus and C-terminus assumed) | 3
CC(C)C[C@H](NC(=O)[C@H](Cc1ccc(O)cc1)NC(=O)[C@H](CCCCN)NC(=O)[C@H](CO)NC(=O)[C@H](Cc1ccc(O)cc1)NC(=O)[C@H](CC(=O)O)NC(=O)[C@H](CO)NC(=O)[C@@H](NC(=O)[C@H](Cc1ccccc1)NC(=O)[C@@H](NC(=O)CNC(=O)[C@H](CCC(N)=O)NC(=O)[C@H](CO)NC(=O)[C@@H](N)Cc1c[nH]cn1)[C@@H](C)O)[C@@H](C)O)C(=O)N[C@@H](CC(=O)O)C(=O)N[C@@H](CO)C(=O)N[C@@H](CCCCN)C(=O)N[C@@H](CCCNC(=N)N)C(=O)N[C@@H](C)C(=O)N[C@@H](CCC(N)=O)C(=O)N[C@@H](CCC(=O)O)C(=O)N[C@@H](Cc1ccccc1)C(=O)N[C@H](C(=O)N[C@@H](CCC(N)=O)C(=O)N[C@@H](Cc1c[nH]c2ccccc12)C(=O)N[C@@H](CC(C)C)C(=O)N[C@@H](CCCCNC(=O)COCCOCCNC(=O)COCCOCCNC(=O)CC[C@H](NC(=O)CCCCCCCCCCCCCCCCC(=O)O)C(=O)O)C(=O)N[C@@H](CC(N)=O)C(=O)N[C@H](C(N)=O)[C@@H](C)O)C(C)C [Example 45, N^ε27 ([2-[2-[2-[[2-[2-[2-[[(4S)-5-hydroxy-4-[(18-hydroxy-18-oxooctadecanoyl)amino]-5-oxopentanoyl]amino]ethoxy]ethoxy]acetyl]amino]ethoxy]ethoxy]acetyl]) [Lys^17, Glu^21, Lys^27] Glucagon peptide amide] (H-HSQGTFTSDYSKYLDSKRAQEFVQWLK([AEEA-AEEA-γGlu-C18 diacid])NT-NH2; N-terminus assumed) | 7
CC(C)C[C@H](NC(=O)[C@H](Cc1ccc(O)cc1)NC(=O)[C@H](CCCCN)NC(=O)[C@H](CO)NC(=O)[C@H](Cc1ccc(O)cc1)NC(=O)[C@H](CC(=O)O)NC(=O)[C@H](CO)NC(=O)[C@@H](NC(=O)[C@H](Cc1ccccc1)NC(=O)[C@@H](NC(=O)CNC(=O)[C@H](CCC(N)=O)NC(=O)[C@H](CO)NC(=O)[C@@H](N)Cc1c[nH]cn1)[C@@H](C)O)[C@@H](C)O)C(=O)N[C@@H](CC(=O)O)C(=O)N[C@@H](CO)C(=O)N[C@@H](CCCCN)C(=O)N[C@@H](CCCNC(=N)N)C(=O)N[C@@H](C)C(=O)N[C@@H](CCC(N)=O)C(=O)N[C@@H](CCC(=O)O)C(=O)N[C@@H](Cc1ccccc1)C(=O)N[C@H](C(=O)N[C@@H](CCC(N)=O)C(=O)N[C@@H](Cc1c[nH]c2ccccc12)C(=O)N[C@@H](CC(C)C)C(=O)N[C@@H](CC(C)C)C(=O)N[C@@H](CC(N)=O)C(=O)N[C@H](C(=O)N[C@@H](CCCCNC(=O)COCCOCCNC(=O)COCCOCCNC(=O)CC[C@H](NC(=O)CCCCCCCCCCCCCCCCC(=O)O)C(=O)O)C(N)=O)[C@@H](C)O)C(C)C [Example 42, N^α-([Lys^17, Glu^21, Leu^27] Glucagonyl) N^ε-([2-[2-[2-[[2-[2-[2-[[(4S)-5-hydroxy-4-[(18-hydroxy-18-oxooctadecanoyl)amino]-5-oxopentanoyl]amino]ethoxy]ethoxy]acetyl]amino]ethoxy]ethoxy]acetyl]) Lysinyl amide] (H-HSQGTFTSDYSKYLDSKRAQEFVQWLLNTK([AEEA-AEEA-γGlu-C18 diacid])-NH2; N-terminus assumed) | 17

Continued by falling EC50, values first:

EC50 [pM] | Compound
155 | CC(C)C[C@H](NC(=O)[C@H](Cc1ccc(O)cc1)NC(=O)[C@H](CCCCN)NC(=O)[C@H](CO)NC(=O)[C@H](Cc1ccc(O)cc1)NC(=O)[C@H](CC(=O)O)NC(=O)[C@H](CO)NC(=O)[C@@H](NC(=O)[C@H](Cc1ccccc1)NC(=O)[C@@H](NC(=O)CNC(=O)[C@H](CCC(N)=O)NC(=O)[C@H](CO)NC(=O)[C@@H](N)Cc1c[nH]cn1)[C@@H](C)O)[C@@H](C)O)C(=O)N[C@@H](CC(=O)O)C(=O)N[C@@H](CO)C(=O)N[C@@H](CCCNC(=N)N)C(=O)N[C@@H](CCCNC(=N)N)C(=O)N[C@@H](C)C(=O)N[C@@H](CCC(N)=O)C(=O)N[C@@H](CC(=O)O)C(=O)N[C@@H](Cc1ccccc1)C(=O)N[C@H](C(=O)N[C@@H](CCC(N)=O)C(=O)N[C@@H](CCCCNC(=O)COCCOCCNC(=O)COCCOCCNC(=O)CC[C@H](NC(=O)CCCCCCCCCCCCCCCCC(=O)O)C(=O)O)C(=O)N[C@@H](CC(C)C)C(=O)N[C@@H](CC(C)C)C(=O)N[C@@H](CC(N)=O)C(=O)N[C@H](C(=O)O)[C@@H](C)O)C(C)C [Example 7]
7 | CC(C)C[C@H](NC(=O)[C@H](Cc1ccc(O)cc1)NC(=O)[C@H](CCCCN)NC(=O)[C@H](CO)NC(=O)[C@H](Cc1ccc(O)cc1)NC(=O)[C@H](CC(=O)O)NC(=O)[C@H](CO)NC(=O)[C@@H](NC(=O)[C@H](Cc1ccccc1)NC(=O)[C@@H](NC(=O)CNC(=O)[C@H](CCC(N)=O)NC(=O)C(C)(C)NC(=O)[C@@H](N)Cc1c[nH]cn1)[C@@H](C)O)[C@@H](C)O)C(=O)N[C@@H](CC(=O)O)C(=O)N[C@@H](CCCCNC(=O)COCCOCCNC(=O)COCCOCCNC(=O)CC[C@H](NC(=O)CCCCCCCCCCCCCCCCC(=O)O)C(=O)O)C(=O)N[C@@H](CCCCN)C(=O)N[C@@H](CCCNC(=N)N)C(=O)N[C@@H](C)C(=O)N[C@@H](CCC(N)=O)C(=O)N[C@@H](CCC(=O)O)C(=O)N[C@@H](Cc1ccccc1)C(=O)N[C@H](C(=O)N[C@@H](CCC(N)=O)C(=O)N[C@@H](Cc1c[nH]c2ccccc12)C(=O)N[C@@H](CC(C)C)C(=O)N[C@@H](CC(C)C)C(=O)N[C@@H](CC(N)=O)C(=O)N[C@H](C(N)=O)[C@@H](C)O)C(C)C [Example 39, N^ε16-([2-[2-[2-[[2-[2-[2-[[(4S)-5-hydroxy-4-[(18-hydroxy-18-oxooctadecanoyl)amino]-5-oxopentanoyl]amino]ethoxy]ethoxy]acetyl]amino]ethoxy]ethoxy]acetyl]) [Aib^2, Lys^16, Lys^17, Glu^21,Leu^27] Glucagon peptide amide] (H-H[Aib]QGTFTSDYSKYLDK([AEEA-AEEA-γGlu-C18 diacid])KRAQEFVQWLLNT-NH2; N-terminus assumed)
